Assay results taken from patent publication US4341895A (priority 1981, dated 1982).

Legend:
phenazocine = assay: Antagonist activity vs. phenazocine; assay type: in vivo; conditions: rat, s.c., as free base; doses in parentheses; tested as p-toluenesulfonate salt
ACh = ACh (acetylcholine) analgesic test, procedure of Collier et al.; assay type: in vivo; conditions: sc; mouse, as free base; range in parentheses; tested as p-toluenesulfonate salt
From the text: (§1) The compounds of formula I and their acid-addition salts are useful as analgesic agents, as determined by standard tests performed on the compounds of formula I where R is ethoxycarbonyl and propionyl in the form of their p-toluenesulfonate salts.
(§2) ^a All activities are expressed in mg/kg s.c., free base.
^e Procedure (in mouse) of H.O.J. Collier, L. C. Dineen, C. A. Johnso
and C. Schneider, Br. J. Pharmacol. Chemother. 32, 295 (1968).

Straub Tail observation = assay type: in vivo; conditions: mouse, s.c.; for locomotor activity (footnote i to Straub Tail): at 75 mg/kg (R = C2 H5 COO) or 30 & 60 mg/kg (R = C2 H5 CO)
From the text: as §1, §2

[1] = Tail Flick (analgesic agonist activity); assay type: in vivo; conditions: sc; rat, as free base; tested as p-toluenesulfonate salt
Bradykinin = Bradykinin analgesic test; assay type: in vivo; conditions: rat
From the text: as §1, §2
^f G. Deffenu, L. Pegrassi and B. Lumachi, J. Pharm. Pharmacol. 18,
135 (1966); B. A. Berkowitz and E. L. Way, J. Pharmacol. Exp. Ther. 177,

[2] = in vivo; cited from earlier work

| SMILES | Antagonist activity vs. phenazocine (phenazocine) | ED50 (ACh) | locomotor activity (footnote i to Straub Tail) (Straub Tail observation) | ED50 [1] | Straub Tail (dose) (Straub Tail observation; as free base, tested as p-toluenesulfonate salt) | depression (footnote h to Bradykinin ED50) (Bradykinin; 10 mg/kg s.c.) | depression (footnote h to Bradykinin ED50) (Bradykinin; 20 and 30 mg/kg s.c.) | ED50 (Bradykinin; sc, as free base, range in parentheses, tested as p-toluenesulfonate salt) | analgesic activity [2] |
| --- | --- | --- | --- | --- | --- | --- | --- | --- | --- |
| CCC(=O)N1[C@@H]2CC[C@H]1[C@H](O)[C@@H](NCc1ccccc1)C2 (relative stereo) [I (R = C2 H5 CO), 3α-Benzylamino-8-propionyl-1αH,5αH-nortropan-2β-ol] | inactive (10) | 16 mg/kg | Increased locomotor activity | 44 ± 3.5 mg/kg |  |  |  |  |  |
| CCOC(=O)N1[C@@H]2CC[C@H]1[C@H](O)[C@@H](NCc1ccccc1)C2 (relative stereo) [I (R = C2 H5 COO), Ethyl 3α-benzylamino-2β-hydroxy-1αH,5αH-nortropane-8-carboxylate] | inactive (10 & 80) | 6.9 mg/kg | Increased locomotor activity | 56 ± 4 mg/kg | 75 mg/kg | Mild depression | depression | 21 mg/kg |  |
| CN1[C@@H]2CC[C@H]1CC(C(=O)O)(c1ccccc1)C2 (stereo partly shown) [3-phenyl-3-carboxytropane] |  |  |  |  |  |  |  |  | reported to have analgesic activity |
